Among the data in patent US20210070748A1, “INHIBITORS OF BRUTONS TYROSINE KINASE” (Pharmacyclics LLC, priority 2015, published 2021) are IC50 values, retold here.

In general, IC50 refers to the concentration needed to halve the response being measured.

Holding throughout (format): biochemical
The target in one assay is EGFR (Homo sapiens, UniProt P00533). Nature of the assay: Inhibition of a panel of kinases, in vitro HotSpot kinase assay: EGFR. As to conditions: D-compounds panel data; 1 μM ATP. Here is the method: (§1) The degree of inhibition of a panel of kinases is determined using the in vitro HotSpot kinase assay (purified enzymes, ^33P-ATP, an appropriate substrate and 1 μM ATP).
Chain of EGFR (P00533 25-1210): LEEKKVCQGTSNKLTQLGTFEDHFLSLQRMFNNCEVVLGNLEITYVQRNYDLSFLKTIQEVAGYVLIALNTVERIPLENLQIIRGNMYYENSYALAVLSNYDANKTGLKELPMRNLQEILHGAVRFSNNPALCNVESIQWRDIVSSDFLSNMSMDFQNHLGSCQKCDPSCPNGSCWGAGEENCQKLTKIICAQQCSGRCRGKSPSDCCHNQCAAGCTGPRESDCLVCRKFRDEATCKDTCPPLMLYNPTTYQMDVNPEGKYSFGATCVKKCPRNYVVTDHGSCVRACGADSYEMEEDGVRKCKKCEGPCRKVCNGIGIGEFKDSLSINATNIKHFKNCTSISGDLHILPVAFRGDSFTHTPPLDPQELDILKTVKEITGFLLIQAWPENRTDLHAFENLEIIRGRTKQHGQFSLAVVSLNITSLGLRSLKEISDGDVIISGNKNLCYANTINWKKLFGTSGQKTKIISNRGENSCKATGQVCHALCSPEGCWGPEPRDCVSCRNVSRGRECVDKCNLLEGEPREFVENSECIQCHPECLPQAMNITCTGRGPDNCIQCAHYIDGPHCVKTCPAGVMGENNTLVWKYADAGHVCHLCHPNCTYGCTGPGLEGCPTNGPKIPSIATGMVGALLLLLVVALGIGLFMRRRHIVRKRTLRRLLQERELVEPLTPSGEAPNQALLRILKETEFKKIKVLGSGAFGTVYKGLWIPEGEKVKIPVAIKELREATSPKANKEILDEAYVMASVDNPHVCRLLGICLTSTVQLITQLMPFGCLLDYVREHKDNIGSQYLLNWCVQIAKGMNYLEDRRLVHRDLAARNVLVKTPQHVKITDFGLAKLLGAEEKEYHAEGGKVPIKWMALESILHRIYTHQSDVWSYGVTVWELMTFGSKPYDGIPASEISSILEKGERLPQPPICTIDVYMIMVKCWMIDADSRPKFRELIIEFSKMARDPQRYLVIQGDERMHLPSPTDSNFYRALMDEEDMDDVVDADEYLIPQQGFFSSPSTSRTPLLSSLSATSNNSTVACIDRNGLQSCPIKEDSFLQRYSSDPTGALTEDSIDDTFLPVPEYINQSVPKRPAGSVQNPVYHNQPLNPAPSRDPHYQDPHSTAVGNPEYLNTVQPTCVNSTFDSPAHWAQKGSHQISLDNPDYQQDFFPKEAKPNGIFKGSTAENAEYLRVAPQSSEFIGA

The target in another assay is T1, ITK (Homo sapiens, UniProt Q08881).
T1 sequence (Q08881 1-620): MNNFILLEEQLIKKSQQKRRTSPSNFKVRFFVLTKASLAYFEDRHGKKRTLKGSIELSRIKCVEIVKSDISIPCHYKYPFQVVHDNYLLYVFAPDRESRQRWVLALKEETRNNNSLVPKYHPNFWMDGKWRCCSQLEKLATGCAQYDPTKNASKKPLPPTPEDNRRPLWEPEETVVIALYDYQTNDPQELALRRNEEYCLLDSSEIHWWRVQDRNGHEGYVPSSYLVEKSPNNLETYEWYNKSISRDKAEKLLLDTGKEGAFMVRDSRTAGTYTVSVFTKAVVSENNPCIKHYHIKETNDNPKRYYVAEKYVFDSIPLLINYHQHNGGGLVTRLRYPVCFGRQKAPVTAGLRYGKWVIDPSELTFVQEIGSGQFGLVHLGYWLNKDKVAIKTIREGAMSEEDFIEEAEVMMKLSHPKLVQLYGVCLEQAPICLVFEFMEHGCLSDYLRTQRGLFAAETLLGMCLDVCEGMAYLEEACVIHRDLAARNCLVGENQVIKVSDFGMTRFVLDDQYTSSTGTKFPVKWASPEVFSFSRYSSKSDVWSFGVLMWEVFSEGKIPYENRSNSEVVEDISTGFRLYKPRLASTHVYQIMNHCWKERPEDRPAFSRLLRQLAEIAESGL
Description: Inhibition of a panel of kinases, in vitro HotSpot kinase assay: ITK. The conditions noted are these: D-compounds panel data; 1 μM ATP. Here is the method: as §1

The target of the next assay is LCK (Homo sapiens, UniProt P06239). Nature of the assay: Inhibition of a panel of kinases, in vitro HotSpot kinase assay: LCK. The conditions noted are these: D-compounds panel data; 1 μM ATP; read-out: IC50 LCK.
Chain of LCK (P06239 whole entry): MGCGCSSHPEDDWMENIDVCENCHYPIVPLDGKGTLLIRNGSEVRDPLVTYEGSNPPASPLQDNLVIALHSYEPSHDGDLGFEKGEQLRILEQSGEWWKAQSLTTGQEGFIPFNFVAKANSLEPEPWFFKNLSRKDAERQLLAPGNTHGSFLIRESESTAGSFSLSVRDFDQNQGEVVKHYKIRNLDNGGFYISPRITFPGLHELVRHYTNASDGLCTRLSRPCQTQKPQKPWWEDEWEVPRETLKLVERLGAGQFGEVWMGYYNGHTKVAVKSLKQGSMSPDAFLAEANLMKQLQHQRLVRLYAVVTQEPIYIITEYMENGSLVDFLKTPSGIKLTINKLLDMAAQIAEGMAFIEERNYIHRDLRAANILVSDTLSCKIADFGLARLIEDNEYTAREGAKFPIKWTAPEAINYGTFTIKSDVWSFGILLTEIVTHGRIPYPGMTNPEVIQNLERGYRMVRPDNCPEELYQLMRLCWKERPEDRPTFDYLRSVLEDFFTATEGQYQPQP
A further assay deals with T2, JAK3 (Homo sapiens, UniProt P52333).
T2 sequence (P52333 1-1124): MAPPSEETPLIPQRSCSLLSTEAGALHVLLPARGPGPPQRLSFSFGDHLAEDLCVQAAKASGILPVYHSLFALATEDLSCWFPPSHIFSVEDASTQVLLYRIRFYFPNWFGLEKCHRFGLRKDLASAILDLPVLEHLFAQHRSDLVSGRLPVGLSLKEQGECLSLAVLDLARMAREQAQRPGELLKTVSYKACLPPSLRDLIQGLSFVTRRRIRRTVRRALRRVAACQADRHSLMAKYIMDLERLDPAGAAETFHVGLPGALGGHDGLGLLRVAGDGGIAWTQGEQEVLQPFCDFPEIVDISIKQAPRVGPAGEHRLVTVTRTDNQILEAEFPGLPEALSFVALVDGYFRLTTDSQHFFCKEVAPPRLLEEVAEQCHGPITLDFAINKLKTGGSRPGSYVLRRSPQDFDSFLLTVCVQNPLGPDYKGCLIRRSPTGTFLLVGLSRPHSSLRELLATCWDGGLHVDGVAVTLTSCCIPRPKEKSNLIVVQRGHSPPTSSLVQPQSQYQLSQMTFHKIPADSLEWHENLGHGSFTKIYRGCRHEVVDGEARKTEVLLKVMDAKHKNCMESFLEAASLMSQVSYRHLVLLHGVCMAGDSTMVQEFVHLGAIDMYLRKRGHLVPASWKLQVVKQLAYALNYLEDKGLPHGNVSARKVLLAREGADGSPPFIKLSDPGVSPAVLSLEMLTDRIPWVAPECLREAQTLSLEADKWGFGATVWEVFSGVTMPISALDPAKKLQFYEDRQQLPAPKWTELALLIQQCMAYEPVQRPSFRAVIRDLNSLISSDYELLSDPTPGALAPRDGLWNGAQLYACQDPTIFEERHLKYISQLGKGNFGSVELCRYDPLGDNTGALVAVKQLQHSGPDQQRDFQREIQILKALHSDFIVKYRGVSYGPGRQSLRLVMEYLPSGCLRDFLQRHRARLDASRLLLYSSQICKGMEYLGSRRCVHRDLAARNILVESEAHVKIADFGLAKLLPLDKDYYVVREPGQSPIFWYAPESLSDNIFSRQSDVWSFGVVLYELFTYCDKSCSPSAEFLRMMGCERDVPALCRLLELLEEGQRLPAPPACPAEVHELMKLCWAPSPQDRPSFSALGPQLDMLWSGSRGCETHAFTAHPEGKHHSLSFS
Nature of the assay: Inhibition of a panel of kinases, in vitro HotSpot kinase assay: JAK3. As to conditions: D-compounds panel data; 1 μM ATP; read-out: IC50 JAK3.

The next assay concerns the target SRC (Homo sapiens, UniProt P12931). Description: Inhibition of a panel of kinases, in vitro HotSpot kinase assay: SRC. The conditions noted are these: D-compounds panel data; 1 μM ATP. How it is done: as §1

Chain of SRC (P12931 whole entry): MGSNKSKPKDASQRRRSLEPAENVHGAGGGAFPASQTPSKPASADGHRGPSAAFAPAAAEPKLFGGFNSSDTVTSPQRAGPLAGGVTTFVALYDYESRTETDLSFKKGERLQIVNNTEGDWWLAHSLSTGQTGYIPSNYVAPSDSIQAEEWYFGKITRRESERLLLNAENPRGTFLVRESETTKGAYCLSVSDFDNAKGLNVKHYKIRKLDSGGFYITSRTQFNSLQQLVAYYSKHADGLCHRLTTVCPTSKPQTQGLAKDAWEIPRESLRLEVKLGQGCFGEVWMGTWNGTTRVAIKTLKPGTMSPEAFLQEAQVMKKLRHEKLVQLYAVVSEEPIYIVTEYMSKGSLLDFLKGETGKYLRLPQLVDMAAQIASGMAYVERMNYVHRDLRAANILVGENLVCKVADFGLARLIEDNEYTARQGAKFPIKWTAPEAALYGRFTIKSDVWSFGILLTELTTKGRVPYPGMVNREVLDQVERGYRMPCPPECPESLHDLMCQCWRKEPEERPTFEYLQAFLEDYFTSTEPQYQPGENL

Turning to `CCN(C)C(=O)N[C@@H]1CCCN(c2cnc(C(N)=O)c(Nc3cnn(C)c3)n2)[C@@H]1C` [Example D-304, 5-[(2R,3R)-3-{[ethyl(methyl)carbamoyl]amino}-2-methylpiperidin-1-yl]-3-[(1-methyl-1H-pyrazol-4-yl)amino]pyrazine-2-carboxamide], the IC50 at EGFR lay within 1000 to 10000 nM; against ITK, 1000 to 10000 nM; at LCK it was 100 to 1000 nM; on JAK3, 1000 to 10000 nM; against SRC, 100 to 1000 nM.
For the molecule `C[C@@H]1[C@H](NC(=O)c2ccc3cnn(C)c3c2)CCCN1c1cnc(C(N)=O)c(Nc2cnn(C)c2)n1` [Example D-259, N-[(2R,3R)-1-{5-carbamoyl-6-[(1-methyl-1H-pyrazol-4-yl)amino]pyrazin-2-yl}-2-methylpiperidin-3-yl]-1-methyl-1H-indazole-6-carboxamide], the IC50 against EGFR lay within 1000 to 10000 nM; on ITK, 100 to 1000 nM; at LCK, 10 to 100 nM; at JAK3, 1000 to 10000 nM; on SRC, 10 to 100 nM.
Consider `C[C@@H]1[C@H](NC(=O)c2ccc(C(O)C(F)(F)F)cc2)CCCN1c1cnc(C(N)=O)c(Nc2cnn(C)c2)n1` (single isomer, unassigned) [Example D-249], for which the IC50 is 1000 to 10000 nM against EGFR; 100 to 1000 nM against ITK; 10 to 100 nM on LCK; 1000 to 10000 nM on JAK3; 10 to 100 nM on SRC.
Consider `C[C@@H]1[C@H](NC(=O)c2cc(C3CC3)n(C)n2)CCCN1c1cnc(C(N)=O)c(Nc2cnn(C)c2)n1` [Example D-253, 5-[(2R,3R)-3-(5-cyclopropyl-1-methyl-1H-pyrazole-3-amido)-2-methylpiperidin-1-yl]-3-[(1-methyl-1H-pyrazol-4-yl)amino]pyrazine-2-carboxamide], for which the IC50 on EGFR was in the range of 100 to 1000 nM; against ITK, 100 to 1000 nM; at LCK it was 100 to 1000 nM; at JAK3 it was 100 to 1000 nM; against SRC it was 10 to 100 nM.
As to `C[C@@H]1[C@H](NC(=O)c2ccc(C3CC3)cn2)CCCN1c1cnc(C(N)=O)c(Nc2cnn(C)c2)n1` [Example D-21, 5-[(2R,3R)-3-(5-cyclopropylpyridine-2-amido)-2-methylpiperidin-1-yl]-3-[(1-methyl-1H-pyrazol-4-yl)amino]pyrazine-2-carboxamide], the IC50 against EGFR is 1000 to 10000 nM; against ITK it was 100 to 1000 nM; at LCK it was 100 to 1000 nM; at JAK3, 1000 to 10000 nM; against SRC it was 10 to 100 nM.
With `C[C@@H]1[C@H](NC(=O)c2ccc(C3CC3)cc2)CCCN1c1cnc(C(N)=O)c(Nc2cnn(C3CCN(C(=O)C4CC4)CC3)c2)n1` [Example D-288, 3-{[1-(1-cyclopropanecarbonylpiperidin-4-yl)-1H-pyrazol-4-yl]amino}-5-[(2R,3R)-3-(4-cyclopropylbenzamido)-2-methylpiperidin-1-yl]pyrazine-2-carboxamide], the IC50 fell in the range of 1000 to 10000 nM at EGFR; 100 to 1000 nM on ITK; 100 to 1000 nM on LCK; 1000 to 10000 nM on JAK3; 10 to 100 nM against SRC.
`C[C@@H]1[C@H](NC(=O)c2ccc(C3CC3)cc2C(F)(F)F)CCCN1c1cnc(C(N)=O)c(Nc2cnn(C)c2)n1` [Example D-25, 5-[(2R,3R)-3-[4-cyclopropyl-2-(trifluoromethyl)benzamido]-2-methylpiperidin-1-yl]-3-[(1-methyl-1H-pyrazol-4-yl)amino]pyrazine-2-carboxamide]: the IC50 against EGFR lay within 1000 to 10000 nM; against ITK it was 1000 to 10000 nM; on LCK, 100 to 1000 nM; on JAK3, 1000 to 10000 nM; against SRC, 100 to 1000 nM.
Turning to `C[C@@H]1[C@H](NC(=O)c2ccc(C3CC3)cc2)CCCN1c1cnc(C(N)=O)c(Nc2cnn(-c3ccncc3)c2)n1` [Example D-284, 5-[(2R,3R)-3-(4-cyclopropylbenzamido)-2-methylpiperidin-1-yl]-3-{[1-(pyridin-4-yl)-1H-pyrazol-4-yl]amino}pyrazine-2-carboxamide], the IC50 against EGFR was more than 10000 nM; at ITK, 100 to 1000 nM; at LCK it was 10 to 100 nM; at JAK3, more than 10000 nM; against SRC, 10 to 100 nM.
With `C[C@@H]1[C@H](NC(=O)c2c[nH]c(C3CC3)n2)CCCN1c1cnc(C(N)=O)c(Nc2cnn(C)c2)n1` [Example D-264, 5-[(2R,3R)-3-(2-cyclopropyl-1H-imidazole-4-amido)-2-methylpiperidin-1-yl]-3-[(1-methyl-1H-pyrazol-4-yl)amino]pyrazine-2-carboxamide], the IC50 lay within 100 to 1000 nM at EGFR; 100 to 1000 nM on ITK; 10 to 100 nM on LCK; 1000 to 10000 nM on JAK3; 10 to 100 nM on SRC.
Turning to `C[C@@H]1[C@H](NC(=O)c2ccc(C(C)(C)O)cc2F)CCCN1c1cnc(C(N)=O)c(Nc2cnn(C)c2)n1` [Example D-302, 5-[(2R,3R)-3-[2-fluoro-4-(2-hydroxypropan-2-yl)benzamido]-2-methylpiperidin-1-yl]-3-[(1-methyl-1H-pyrazol-4-yl)amino]pyrazine-2-carboxamide], the IC50 was in the range of 10 to 100 nM on EGFR; 10 to 100 nM against ITK; 10 to 100 nM on LCK; 100 to 1000 nM at JAK3; 10 to 100 nM against SRC.
Take `C[C@@H]1[C@H](NC(=O)c2ccc3c(cnn3C)c2)CCCN1c1cnc(C(N)=O)c(Nc2cnn(C)c2)n1` [Example D-254, N-[(2R,3R)-1-{5-carbamoyl-6-[(1-methyl-1H-pyrazol-4-yl)amino]pyrazin-2-yl}-2-methylpiperidin-3-yl]-1-methyl-1H-indazole-5-carboxamide]: the IC50 on EGFR was in the range of 1000 to 10000 nM; against ITK, 100 to 1000 nM; at LCK, 100 to 1000 nM; at JAK3, 1000 to 10000 nM; on SRC, 10 to 100 nM.
For `C[C@@H]1[C@H](NC(=O)c2cc3n(n2)CCC3)CCCN1c1cnc(C(N)=O)c(Nc2cnn(C)c2)n1` [Example D-263, 3-[(1-methyl-1H-pyrazol-4-yl)amino]-5-[(2R,3R)-2-methyl-3-{4H,5H,6H-pyrrolo[1,2-b]pyrazole-2-amido}piperidin-1-yl]pyrazine-2-carboxamide], the IC50 at EGFR lay in the range of 100 to 1000 nM; against ITK, 100 to 1000 nM; at LCK it was 10 to 100 nM; at JAK3, 1000 to 10000 nM; at SRC it was 10 to 100 nM.
On to `C[C@@H]1[C@H](NC(=O)c2ccc(C3COC3)cc2)CCCN1c1cnc(C(N)=O)c(Nc2cnn(C)c2)n1` [Example D-23, 3-[(1-methyl-1H-pyrazol-4-yl)amino]-5-[(2R,3R)-2-methyl-3-[4-(oxetan-3-yl)benzamido]piperidin-1-yl]pyrazine-2-carboxamide], for which the IC50 lay within 1000 to 10000 nM against EGFR; 100 to 1000 nM against ITK; 100 to 1000 nM on LCK; 100 to 1000 nM on JAK3; 10 to 100 nM on SRC.
